Assay [1] deals with PI3 Kinase α (Homo sapiens, UniProt P42336). Description: Fluorescence polarization assay for PI3K (PI3 Kinase α). The class given is biochemical. To be noted: diC8-PI(4,5)P2 substrate, 25 μM ATP, one hour at 25° C.
Assay [2] has as its target PI3 Kinase γ (Homo sapiens, UniProt P48736). The assay is described as follows: Fluorescence polarization assay for PI3K (PI3 Kinase γ). The class given is biochemical. To be noted: diC8-PI(4,5)P2 substrate, 25 μM ATP, one hour at 25° C.

The source of these data is patent US20090181963A1, “3H-[1,2,3]TRIAZOLO[4,5-D]PYRIMIDINE COMPOUNDS, THEIR USE AS mTOR KINASE AND PI3 KINASE INHIBITORS, AND THEIR [sequence]” (Wyeth, priority 2008, published 2009).

The IC50 is the concentration needed to halve the response being measured. A low value points to greater potency.

PI3 Kinase γ, sequence (P48736 whole entry): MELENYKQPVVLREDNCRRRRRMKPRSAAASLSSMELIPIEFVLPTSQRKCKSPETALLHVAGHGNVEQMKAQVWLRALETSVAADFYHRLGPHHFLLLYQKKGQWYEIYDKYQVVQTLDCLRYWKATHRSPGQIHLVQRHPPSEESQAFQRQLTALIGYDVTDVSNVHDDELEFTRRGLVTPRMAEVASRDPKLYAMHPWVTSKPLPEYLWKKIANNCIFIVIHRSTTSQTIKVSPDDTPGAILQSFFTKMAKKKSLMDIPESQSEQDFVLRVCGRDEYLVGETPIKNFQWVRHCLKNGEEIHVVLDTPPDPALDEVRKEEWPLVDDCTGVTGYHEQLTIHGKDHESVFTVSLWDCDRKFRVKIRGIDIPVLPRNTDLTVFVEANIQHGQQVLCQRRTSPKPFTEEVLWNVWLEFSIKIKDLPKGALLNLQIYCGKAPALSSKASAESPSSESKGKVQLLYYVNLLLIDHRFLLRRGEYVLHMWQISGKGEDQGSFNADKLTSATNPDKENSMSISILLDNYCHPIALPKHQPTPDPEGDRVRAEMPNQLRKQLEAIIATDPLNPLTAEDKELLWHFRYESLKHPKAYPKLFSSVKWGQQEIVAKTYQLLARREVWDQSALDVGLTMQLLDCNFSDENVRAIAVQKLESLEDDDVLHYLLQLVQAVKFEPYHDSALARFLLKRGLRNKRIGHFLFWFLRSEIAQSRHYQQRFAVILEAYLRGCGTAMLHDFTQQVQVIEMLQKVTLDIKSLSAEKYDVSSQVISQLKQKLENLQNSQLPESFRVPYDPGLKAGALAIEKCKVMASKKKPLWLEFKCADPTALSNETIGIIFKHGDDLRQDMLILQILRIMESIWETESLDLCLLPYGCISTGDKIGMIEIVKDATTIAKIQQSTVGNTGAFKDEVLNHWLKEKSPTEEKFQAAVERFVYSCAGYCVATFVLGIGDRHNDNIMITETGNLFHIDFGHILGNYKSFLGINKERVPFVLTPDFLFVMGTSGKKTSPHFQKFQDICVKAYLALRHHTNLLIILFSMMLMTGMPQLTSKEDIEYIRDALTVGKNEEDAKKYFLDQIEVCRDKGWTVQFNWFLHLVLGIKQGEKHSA
PI3 Kinase α, sequence (P42336 whole entry): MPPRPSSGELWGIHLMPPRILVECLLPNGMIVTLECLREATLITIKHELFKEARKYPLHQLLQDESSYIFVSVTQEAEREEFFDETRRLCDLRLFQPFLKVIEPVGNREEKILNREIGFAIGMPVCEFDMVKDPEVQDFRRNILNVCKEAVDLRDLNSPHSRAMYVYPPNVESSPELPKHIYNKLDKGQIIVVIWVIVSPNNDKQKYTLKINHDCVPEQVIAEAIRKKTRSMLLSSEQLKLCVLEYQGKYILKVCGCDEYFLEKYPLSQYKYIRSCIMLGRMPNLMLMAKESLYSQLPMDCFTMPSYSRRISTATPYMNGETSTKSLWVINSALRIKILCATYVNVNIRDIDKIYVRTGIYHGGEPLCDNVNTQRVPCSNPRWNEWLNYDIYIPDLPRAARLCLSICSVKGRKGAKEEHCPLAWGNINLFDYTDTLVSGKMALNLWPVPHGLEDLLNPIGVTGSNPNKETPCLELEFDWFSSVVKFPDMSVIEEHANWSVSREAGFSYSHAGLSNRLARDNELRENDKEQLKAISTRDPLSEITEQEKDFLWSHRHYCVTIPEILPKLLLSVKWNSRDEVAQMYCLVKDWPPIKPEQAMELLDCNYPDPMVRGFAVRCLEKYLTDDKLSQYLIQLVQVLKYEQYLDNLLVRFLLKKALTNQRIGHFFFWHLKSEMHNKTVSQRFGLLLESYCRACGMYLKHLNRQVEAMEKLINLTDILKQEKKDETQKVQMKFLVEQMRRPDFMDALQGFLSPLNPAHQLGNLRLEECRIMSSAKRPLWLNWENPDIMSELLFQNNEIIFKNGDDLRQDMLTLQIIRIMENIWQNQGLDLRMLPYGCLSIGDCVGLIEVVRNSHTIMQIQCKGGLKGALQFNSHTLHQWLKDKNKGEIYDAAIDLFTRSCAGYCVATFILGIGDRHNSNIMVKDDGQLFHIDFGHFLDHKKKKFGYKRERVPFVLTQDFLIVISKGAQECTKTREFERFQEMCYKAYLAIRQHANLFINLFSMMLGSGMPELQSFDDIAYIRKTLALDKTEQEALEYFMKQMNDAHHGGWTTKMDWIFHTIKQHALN
PI3 Kinase α, sequence (P27986 whole entry partner): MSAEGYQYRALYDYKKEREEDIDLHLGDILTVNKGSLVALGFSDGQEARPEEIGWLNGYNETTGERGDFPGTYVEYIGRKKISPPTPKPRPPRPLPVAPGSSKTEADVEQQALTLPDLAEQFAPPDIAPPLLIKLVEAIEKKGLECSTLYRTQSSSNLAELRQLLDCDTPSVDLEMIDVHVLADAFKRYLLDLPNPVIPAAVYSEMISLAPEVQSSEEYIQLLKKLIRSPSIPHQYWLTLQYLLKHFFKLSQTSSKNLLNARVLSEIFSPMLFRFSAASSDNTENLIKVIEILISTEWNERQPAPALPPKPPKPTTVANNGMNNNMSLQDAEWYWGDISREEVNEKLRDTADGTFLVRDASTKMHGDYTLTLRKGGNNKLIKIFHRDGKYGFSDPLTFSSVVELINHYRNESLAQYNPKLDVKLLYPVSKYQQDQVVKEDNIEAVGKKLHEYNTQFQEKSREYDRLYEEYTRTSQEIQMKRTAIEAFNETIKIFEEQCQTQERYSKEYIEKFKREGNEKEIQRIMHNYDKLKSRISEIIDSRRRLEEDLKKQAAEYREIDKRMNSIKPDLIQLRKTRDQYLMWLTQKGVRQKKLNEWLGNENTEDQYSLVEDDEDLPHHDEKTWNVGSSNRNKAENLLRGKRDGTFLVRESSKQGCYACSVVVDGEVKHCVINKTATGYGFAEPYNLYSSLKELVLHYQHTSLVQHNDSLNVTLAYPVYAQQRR

`Oc1cccc(-c2nc(N3CCOCC3)c3nnn(C4CCN(Cc5ccc(F)cc5)CC4)c3n2)c1` [Example 147, 3-{3-[1-(4-fluorobenzyl)piperidin-4-yl]-7-morpholin-4-yl-3H-[1,2,3]triazolo[4,5-d]pyrimidin-5-yl}phenol]: the IC50 stood at 59 nM in assay [1] and 734 nM in assay [2].
Taken in the same sequence, the figures for `CC(C)(C)OC(=O)N1CCC(n2nnc3c(N4CCOCC4)nc(-c4cnc(N)nc4)nc32)CC1` [Example 148, tert-butyl 4-[5-(2-aminopyrimidin-5-yl)-7-morpholin-4-yl-3H-[1,2,3]triazolo[4,5-d]pyrimidin-3-yl]piperidine-1-carboxylate] were 111 nM and 1400 nM.
In the case of `Oc1cccc(-c2nc(N3CCOCC3)c3nnn(C4CCN(Cc5ccccn5)CC4)c3n2)c1` [Example 149, 3-{7-morpholin-4-yl-3-[1-(pyridin-2-ylmethyl)piperidin-4-yl]-3H-[1,2,3]triazolo[4,5-d]pyrimidin-5-yl}phenol], the results for the IC50 in assay [1] and in assay [2] were 67 nM and 735 nM, respectively.
Regarding `CC(C)(C)OC(=O)N1CCC(n2nnc3c(N4CCOCC4)nc(-c4ccc(NC(=O)Nc5cccnc5)cc4)nc32)CC1` [Example 150, tert-butyl 4-(7-morpholin-4-yl-5-{4-[(pyridin-3-ylcarbamoyl)amino]phenyl}-3H-[1,2,3]triazolo[4,5-d]pyrimidin-3-yl)piperidine-1-carboxylate], the IC50 came to 21.5 nM in assay [1] and 223 nM in assay [2].
The like results for `CN(C)CCNC(=O)Nc1ccc(-c2nc(N3CCOCC3)c3nnn(C4CCN(C(=O)OC(C)(C)C)CC4)c3n2)cc1` [Example 151, tert-butyl 4-(5-(4-(3-(2-(dimethylamino)ethyl)ureido)phenyl)-7-morpholino-3H-[1,2,3]triazolo[4,5-d]pyrimidin-3-yl)piperidine-1-carboxylate] were, in that order, 296 nM and 748 nM.
As for `CN(C)CCNC(=O)Nc1ccc(-c2nc(N3CCOCC3)c3nnn(C4CCNCC4)c3n2)cc1` [Example 152, 1-(2-(dimethylamino)ethyl)-3-(4-(7-morpholino-3-(piperidin-4-yl)-3H-[1,2,3]triazolo[4,5-d]pyrimidin-5-yl)phenyl)urea], the IC50 was 104 nM in assay [1] and 392 nM in assay [2].
Taken in the same sequence, the figures for `CN(C)CCNC(=O)Nc1ccc(-c2nc(N3CCOCC3)c3nnn(C4CCN(Cc5ccc(F)cc5)CC4)c3n2)cc1` [Example 153, 1-(2-(dimethylamino)ethyl)-3-(4-(3-(1-(4-fluorobenzyl)piperidin-4-yl)-7-morpholino-3H-[1,2,3]triazolo[4,5-d]pyrimidin-5-yl)phenyl)urea] were 146 nM and 176 nM.
The like results for `CN(C)CCNC(=O)Nc1ccc(-c2nc(N3CCOCC3)c3nnn(C4CCN(Cc5cccnc5)CC4)c3n2)cc1` [Example 154, 1-(2-(dimethylamino)ethyl)-3-(4-(7-morpholino-3-(1-(pyridin-3-ylmethyl)piperidin-4-yl)-3H-[1,2,3]triazolo[4,5-d]pyrimidin-5-yl)phenyl)urea] were, in that order, 206 nM and 58 nM.
The like results for `CN(C)CCNC(=O)Nc1ccc(-c2nc(N3CCOCC3)c3nnn(C4CCN(Cc5ccc(Br)nc5)CC4)c3n2)cc1` [Example 155, 1-(4-(3-(1-((6-bromopyridin-3-yl)methyl)piperidin-4-yl)-7-morpholino-3H-[1,2,3]triazolo[4,5-d]pyrimidin-5-yl)phenyl)-3-(2-(dimethylamino)ethyl)urea] were, in that order, 48 nM and 176 nM.
As for `CN(C)CCNC(=O)Nc1ccc(-c2nc(N3CCOCC3)c3nnn(C4CCN(Cc5ccc(Cl)cc5F)CC4)c3n2)cc1` [Example 156, 1-(4-(3-(1-(4-chloro-2-fluorobenzyl)piperidin-4-yl)-7-morpholino-3H-[1,2,3]triazolo[4,5-d]pyrimidin-5-yl)phenyl)-3-(2-(dimethylamino)ethyl)urea], the results for the IC50 in assay [1] and in assay [2] were 170 nM and 557 nM, respectively.
Taken in the same sequence, the figures for `CN(C)CCNC(=O)Nc1ccc(-c2nc(N3CCOCC3)c3nnn(C4CCN(Cc5ccc(F)nc5)CC4)c3n2)cc1` [Example 157, 1-(2-(dimethylamino)ethyl)-3-(4-(3-(1-((6-fluoropyridin-3-yl)methyl)piperidin-4-yl)-7-morpholino-3H-[1,2,3]triazolo[4,5-d]pyrimidin-5-yl)phenyl)urea] were 61 nM and 144 nM.
The like results for `Cc1ccc(CN2CCC(n3nnc4c(N5CCOCC5)nc(-c5ccc(NC(=O)NCCN(C)C)cc5)nc43)CC2)s1` [Example 158, 1-(2-(dimethylamino)ethyl)-3-(4-(3-(1-((5-methylthiophen-2-yl)methyl)piperidin-4-yl)-7-morpholino-3H-[1,2,3]triazolo[4,5-d]pyrimidin-5-yl)phenyl)urea] were, in that order, 74.5 nM and 342 nM.
Taken in the same sequence, the figures for `CCCCN1CCC(n2nnc3c(N4CCOCC4)nc(-c4ccc(NC(=O)NCCN(C)C)cc4)nc32)CC1` [Example 159, 1-(4-(3-(1-butylpiperidin-4-yl)-7-morpholino-3H-[1,2,3]triazolo[4,5-d]pyrimidin-5-yl)phenyl)-3-(2-(dimethylamino)ethyl)urea] were 166 nM and 685 nM.
On to `CN(C)CCNC(=O)Nc1ccc(-c2nc(N3CCOCC3)c3nnn(C4CCN(Cc5ccc(-c6ccncc6)cc5)CC4)c3n2)cc1` [Example 160, 1-(2-(dimethylamino)ethyl)-3-(4-(7-morpholino-3-(1-(4-(pyridin-4-yl)benzyl)piperidin-4-yl)-3H-[1,2,3]triazolo[4,5-d]pyrimidin-5-yl)phenyl)urea], for which the IC50 in assay [1] is 13 nM; in assay [2], 108 nM.
Regarding `CN(C)CCNC(=O)Nc1ccc(-c2nc(N3CCOCC3)c3nnn(C4CCN(Cc5ccc[nH]5)CC4)c3n2)cc1` [Example 161, 1-(4-(3-(1-((1H-pyrrol-2-yl)methyl)piperidin-4-yl)-7-morpholino-3H-[1,2,3]triazolo[4,5-d]pyrimidin-5-yl)phenyl)-3-(2-(dimethylamino)ethyl)urea], the IC50 in assay [1] was found to be 80 nM; in assay [2], 286 nM.
On to `CN(C)CCCOc1ccc(CN2CCC(n3nnc4c(N5CCOCC5)nc(-c5ccc(NC(=O)NCCN(C)C)cc5)nc43)CC2)cc1` [Example 162, 1-(2-(dimethylamino)ethyl)-3-(4-(3-(1-(4-(3-(dimethylamino)propoxy)benzyl)piperidin-4-yl)-7-morpholino-3H-[1,2,3]triazolo[4,5-d]pyrimidin-5-yl)phenyl)urea], for which the values for the IC50 in assay [1] and in assay [2] were 11.5 nM and 104 nM, respectively.
The like results for `O=C(Nc1ccc(-c2nc(N3CCOCC3)c3nnn(C4CCNCC4)c3n2)cc1)Nc1cccnc1` [Example 163, 1-[4-(7-morpholin-4-yl-3-piperidin-4-yl-3H-[1,2,3]triazolo[4,5-d]pyrimidin-5-yl)phenyl]-3-pyridin-3-ylurea] were, in that order, 13.5 nM and 49.5 nM.
With `CN1CCC(n2nnc3c(N4CCOCC4)nc(-c4ccc(NC(=O)Nc5cccnc5)cc4)nc32)CC1` [Example 164, 1-{4-[3-(1-methylpiperidin-4-yl)-7-morpholin-4-yl-3H-[1,2,3]triazolo[4,5-d]pyrimidin-5-yl]phenyl}-3-pyridin-3-ylurea], the figures for the IC50 in assay [1] and in assay [2] were 22 nM and 147 nM, respectively.
Taken in the same sequence, the figures for `CC(C)(C)OC(=O)N1CCC(n2nnc3c(N4CCOCC4)nc(-c4ccc(NC(=O)Nc5ccc(F)cc5)cc4)nc32)CC1` [Example 165, tert-butyl 4-[5-(4-{[(4-fluorophenyl)carbamoyl]amino}phenyl)-7-morpholin-4-yl-3H-[1,2,3]triazolo[4,5-d]pyrimidin-3-yl]piperidine-1-carboxylate] were 151 nM and 3580 nM.
The like results for `CC(C)(C)OC(=O)N1CCC(n2nnc3c(N4CCOCC4)nc(-c4ccc(NC(=O)Nc5ccncc5)cc4)nc32)CC1` [Example 166, tert-butyl 4-(7-morpholin-4-yl-5-{4-[(pyridin-4-ylcarbamoyl)amino]phenyl}-3H-[1,2,3]triazolo[4,5-d]pyrimidin-3-yl)piperidine-1-carboxylate] were, in that order, 36.5 nM and 494 nM.
The like results for `O=C(Nc1ccncc1)Nc1ccc(-c2nc(N3CCOCC3)c3nnn(C4CCNCC4)c3n2)cc1` [Example 167, 1-[4-(7-morpholin-4-yl-3-piperidin-4-yl-3H-[1,2,3]triazolo[4,5-d]pyrimidin-5-yl)phenyl]-3-pyridin-4-ylurea] were, in that order, 9 nM and 91.5 nM.
On to `CNC(=O)Nc1ccc(-c2nc(N3CCOCC3)c3nnn(C4CCN(C(=O)OC(C)(C)C)CC4)c3n2)cc1` [Example 168, tert-butyl 4-(5-{4-[(methylcarbamoyl)amino]phenyl}-7-morpholin-4-yl-3H-[1,2,3]triazolo[4,5-d]pyrimidin-3-yl)piperidine-1-carboxylate], for which the IC50 stood at 200 nM in assay [1] and 3240 nM in assay [2].
The like results for `COC(=O)NC(=O)Nc1ccc(-c2nc(N3CCOCC3)c3nnn(C4CCN(C(=O)OC(C)(C)C)CC4)c3n2)cc1` [Example 169, tert-butyl 4-[5-(4-{[(methoxycarbonyl)carbamoyl]amino}phenyl)-7-morpholin-4-yl-3H-[1,2,3]triazolo[4,5-d]pyrimidin-3-yl]piperidine-1-carboxylate] were, in that order, greater than 10000 nM and greater than 10000 nM.
`O=C(Nc1ccc(-c2nc(N3CCOCC3)c3nnn(C4CCN(Cc5ccccc5)CC4)c3n2)cc1)Nc1cccc(Cl)c1` [Example 170, 1-{4-[3-(1-benzylpiperidin-4-yl)-7-morpholin-4-yl-3H-[1,2,3]triazolo[4,5-d]pyrimidin-5-yl]phenyl}-3-(3-chlorophenyl)urea]: the IC50 is 5630 nM in assay [1] and 10400 nM in assay [2].
Taken in the same sequence, the figures for `Nc1ncc(CN2CCC(n3nnc4c(N5CCOCC5)nc(-c5cncc(O)c5)nc43)CC2)s1` [Example 171, 5-(3-{1-[(2-amino-1,3-thiazol-5-yl)methyl]piperidin-4-yl}-7-morpholin-4-yl-3H-[1,2,3]triazolo[4,5-d]pyrimidin-5-yl)pyridin-3-ol] were 76.5 nM and 144 nM.
